US7989464B2, “mGluR1 antagonists as therapeutic agents” (Schering Corporation, priority 2004, dated 2011)
Where two headings read alike, the source gives them in different places.

Target: T1, hmGluR1 receptor (Homo sapiens, UniProt Q13255)
T1 construct: expressed in transfected cells
Test: IC50 determination: intracellular calcium mobilization (FLIPR) upon Quisqualate stimulation in CHO cells stably expressing hmGluR1
Format: cell-based
Details: against Quisqualate 1 μM (EC80)
Summary of the method: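 CHO cells stably expressing hmGluR1 were kept overnight in DMEM high glucose with GPT and 1 mM pyruvate, then loaded 2 h with Calcium 3 dye.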

[1] = class symbols, read-out: mGIuR 1 IC50
[2] = FLIPR calcium mobilization, read-out: IC50 Class
[3] = FLIPR calcium mobilization, read-out: mGluR1 IC50

T1 sequence (Q13255 19-1194): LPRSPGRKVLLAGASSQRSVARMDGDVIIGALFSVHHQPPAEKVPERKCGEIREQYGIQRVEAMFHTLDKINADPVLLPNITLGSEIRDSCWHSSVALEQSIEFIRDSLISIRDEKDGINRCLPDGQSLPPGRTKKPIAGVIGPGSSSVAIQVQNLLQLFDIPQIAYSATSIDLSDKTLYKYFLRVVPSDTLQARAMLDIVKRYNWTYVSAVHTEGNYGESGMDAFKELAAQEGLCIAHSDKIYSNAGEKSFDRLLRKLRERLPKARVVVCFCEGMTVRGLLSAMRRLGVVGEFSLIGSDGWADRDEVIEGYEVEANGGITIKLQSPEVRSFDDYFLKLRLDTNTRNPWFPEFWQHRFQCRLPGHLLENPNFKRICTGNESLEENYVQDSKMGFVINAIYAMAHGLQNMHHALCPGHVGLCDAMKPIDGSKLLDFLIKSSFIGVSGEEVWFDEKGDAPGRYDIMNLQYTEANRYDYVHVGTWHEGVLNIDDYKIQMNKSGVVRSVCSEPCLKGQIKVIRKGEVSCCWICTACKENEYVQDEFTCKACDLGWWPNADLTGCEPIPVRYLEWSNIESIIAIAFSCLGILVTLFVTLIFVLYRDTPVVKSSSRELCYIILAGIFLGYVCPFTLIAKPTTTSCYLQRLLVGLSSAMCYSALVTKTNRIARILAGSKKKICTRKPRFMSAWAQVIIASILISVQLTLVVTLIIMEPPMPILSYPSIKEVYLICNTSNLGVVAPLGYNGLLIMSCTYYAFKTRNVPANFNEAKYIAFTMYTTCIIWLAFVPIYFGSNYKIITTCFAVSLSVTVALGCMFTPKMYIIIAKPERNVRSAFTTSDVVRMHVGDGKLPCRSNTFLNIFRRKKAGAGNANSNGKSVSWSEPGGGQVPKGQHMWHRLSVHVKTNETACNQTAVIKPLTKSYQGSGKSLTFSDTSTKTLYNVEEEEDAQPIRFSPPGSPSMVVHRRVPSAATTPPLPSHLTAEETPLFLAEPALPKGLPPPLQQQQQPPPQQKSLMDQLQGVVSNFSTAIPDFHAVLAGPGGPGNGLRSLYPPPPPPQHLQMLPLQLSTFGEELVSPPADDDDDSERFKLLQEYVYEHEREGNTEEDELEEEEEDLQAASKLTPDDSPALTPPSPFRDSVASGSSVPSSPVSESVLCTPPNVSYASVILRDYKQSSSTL

| SMILES | IC50 [1] [nM] | IC50 [2] [nM] | further results |
| --- | --- | --- | --- |
| CN(C)c1ccnc2sc3c(=O)n(N)cnc3c12 [60H] | > 1000 | – | – |
| COc1ccc(-n2cnc3c(sc4ncnc(N)c43)c2=O)cc1 [95FU] | – | 50 to 150 | – |
| COCCNc1nncc2sc3c(=O)n(-c4ccc(C)cc4)cnc3c12 [167D] | – | > 1000 | – |
| CNc1ccnc2sc3c(=O)n(-c4ccncc4)cnc3c12 [28EF] | – | 150 to 1000 | – |
| CN(C)c1ncnc2sc3c(=O)n(-c4ccc(C5CC5)cc4)cnc3c12 [137D] | – | < 50 | – |
| COc1ccc(-n2cnc3c(sc4nccc(NC5CC5)c43)c2=O)cc1Cl [131K] | – | > 1000 | – |
| C=CCc1cnc2sc3c(=O)n(-c4ccc(Cl)cc4)cnc3c2c1N [178B] | – | < 50 | IC50 [3]: 1.46 nM |
| CNc1ccnc2sc3c(=O)n(-c4cccc(Cl)c4)cnc3c12 [28CC] | – | 50 to 150 | – |
| CN(C)c1ccnc2sc3c(=O)n(-c4ccc5sccc5c4)cnc3c12 [7BM] | < 50 | – | IC50 [3]: 1.48 nM |
| CN(C)c1cc(Cl)nc2sc3c(=O)n(C4CCCCC4)cnc3c12 [compound 83] | 50 to 150 | – | – |
| COc1ccnc2sc3c(=O)n(-c4ccc5c(c4)OCO5)cnc3c12 [28FY] | – | > 1000 | – |
| Cc1ccc(-n2cnc3c(sc4cccc(N(C)C)c43)c2=O)cc1 [103D] | 50 to 150 | – | – |
| COc1ccc(-n2cnc3c4c(N(C)C)ccnc4n(C)c3c2=O)cc1 [134B] | 150 to 1000 | – | – |
| O=c1c2sc3ncnc(NCC4CC4)c3c2ncn1-c1ccc(Cl)cc1 [95DR] | – | 50 to 150 | – |
| O=c1c2sc3nccc(O)c3c2ncn1C1CCCCC1 [26A] | > 1000 | – | – |
| COc1ccc(-n2cnc3c(sc4nc(Cl)cc(OC)c43)c2=O)cc1 [57B] | – | > 1000 | – |
| Cc1ccc(-n2cnc3c(sc4nccc(N(C)N)c43)c2=O)cc1 [28AE] | < 50 | – | – |
| CN(C)c1cccc2sc3c(=O)n(-c4ccc(F)cc4)cnc3c12 [103N] | – | 150 to 1000 | – |
| COc1ccnc2sc3c(=O)n(C4CCCCC4)cnc3c12 [25A] | 150 to 1000 | – | – |
| COCCNc1ccnc2sc3c(=O)n(-c4ccc(F)cc4)cnc3c12 [28GL] | – | < 50 | – |
| Cc1ccc(-n2cnc3c(sc4ncc(Br)c(N)c43)c2=O)cc1 [173A] | – | < 50 | – |

| SMILES | IC50 [1] [nM] | IC50 [2] [nM] | further results |
| --- | --- | --- | --- |
| CN(C)c1ccnc2sc3c(=O)n(-c4ccc(Cl)cc4)cnc3c12 [P-2] | < 50 | – | – |
| O=c1c2sc3ncnc(NC4CC4)c3c2ncn1-c1ccc(C2CC2)cc1 [137C] | – | 50 to 150 | – |
| CN(C)c1ccnc2sc3c(=O)n(-c4ccc(Br)c(C(F)(F)F)c4)cnc3c12 [7DS] | 150 to 1000 | – | – |
| C#CCn1cnc2c(sc3nccc(N(C)C)c32)c1=O [7BH] | > 1000 | – | – |
| CCCCn1cnc2c(sc3nccc(N(C)C)c32)c1=O [7P] | 50 to 150 | – | – |
| CN(C)c1ccnc2sc3c(=O)n(NC4CCCCC4)cnc3c12 [60G] | < 50 | – | – |
| CNc1c([N+](=O)[O-])cnc2sc3c(=O)n(C4CCCCC4)cnc3c12 [compound 52] | 150 to 1000 | – | – |
| C#CCNc1ncnc2sc3c(=O)n(-c4ccc(C)cc4)cnc3c12 [95EH] | – | < 50 | – |
| Cc1ccc(-n2cnc3c(sc4nccc(N(C)C)c43)c2=O)cc1 [7BF] | < 50 | – | – |
| O=c1c2sc3nccc(NC4CCCCC4)c3c2ncn1-c1ccc(Cl)cc1 [28B] | > 1000 | – | – |
| C#CCOc1nncc2sc3c(=O)n(-c4ccc(C)cc4)cnc3c12 [167E] | – | > 1000 | – |
| CN(C)c1ccnc2sc3c(=O)n(-c4ccc(OC(F)F)cc4)cnc3c12 [7Z] | < 50 | – | – |
| C=CCNc1ccnc2sc3c(=O)n(-c4ccc(Br)cc4)cnc3c12 [28DR] | – | < 50 | – |
| Cc1ccc(-n2cnc3c(sc4nccc(N5CCOCC5)c43)c2=O)cc1 [28CW] | – | > 1000 | – |
| CN(C)c1ccnc2c1c1ncn(C3CCCCC3)c(=O)c1n2C [134G] | > 1000 | – | – |
| CN(C)c1ccnc2sc3c(=O)n(Cc4ccco4)cnc3c12 [15H] | 150 to 1000 | – | – |
| C#CCOc1ccnc2sc3c(=O)n(-c4ccc(Br)cc4)cnc3c12 [66I] | – | < 50 | – |
| CC(=O)Nn1c(C)nc2c(sc3nccc(N(C)C)c32)c1=O [65A] | > 1000 | – | – |
| CN(C)c1cccc2sc3c(=O)n(C4CCCCC4)cnc3c12 [103B] | 150 to 1000 | – | – |
| Cc1ccccc1-n1cnc2c(sc3nccc(N(C)C)c32)c1=O [7CW] | 50 to 150 | – | – |
| CC1CCC(n2cnc3c(sc4nccc(N(C)C)c43)c2=O)CC1 (stereo not shown) [15Z] | < 50 | – | – |

| SMILES | IC50 [1] [nM] | IC50 [2] [nM] | further results |
| --- | --- | --- | --- |
| Cc1ccc(-n2c(C)nc3c(sc4nccc(N(C)C)c43)c2=O)cc1 [113A] | < 50 | – | – |
| O=c1c2sc3nccc(Nc4ccccc4)c3c2ncn1C1CCCCC1 [28H] | > 1000 | – | – |
| COc1ccc(-n2cnc3c(sc4nccc(NC5CC5)c43)c2=O)c(F)c1 [131H] | – | 50 to 150 | – |
| O=c1c2sc3nccc(OCC4CC4)c3c2ncn1-c1ccc(Br)cc1 [66L] | – | 150 to 1000 | – |
| O=c1c2sc3nccc(NCCCO)c3c2ncn1-c1ccc(Br)cc1 [28GQ] | – | < 50 | IC50 [3]: 0.66 nM |
| CCNc1ccnc2sc3c(=O)n(-c4cccc(F)c4)cnc3c12 [28CQ] | – | < 50 | – |
| C=CCNc1nncc2sc3c(=O)n(-c4ccc(C)cc4)cnc3c12 [167C] | – | 150 to 1000 | – |
| C#CC(C)Nc1ccnc2sc3c(=O)n(-c4ccc(C)cc4)cnc3c12 (stereo not shown) [28EZ] | – | 150 to 1000 | – |
| COc1ccc(-n2cnc3c(sc4nc(N)cc(NC5CC5)c43)c2=O)cc1 [59G] | – | < 50 | – |
| C#CCNc1ncnc2sc3c(=O)n(-c4ccc(OC)cc4F)cnc3c12 [95EJ] | – | 50 to 150 | – |
| CNc1ncnc2sc3c(=O)n(-c4ccc(Br)cc4)cnc3c12 [95BD] | – | < 50 | – |
| Cc1ccc(-n2cnc3c(sc4nccc(NCCC(C)O)c43)c2=O)cc1 (stereo not shown) [28CY] | – | < 50 | – |
| Cc1ccc(-n2cnc3c4c(N(C)C)ccnc4n(C)c3c2=O)cc1 [134A] | 150 to 1000 | – | – |
| CN(C)c1ccnc2sc3c(=O)n(-c4ccc(C5CC5)c(F)c4)cnc3c12 [137G] | – | < 50 | – |
| C#CCN(C)c1ccnc2sc3c(=O)n(-c4ccc(Cl)cc4)cnc3c12 [28DX] | – | < 50 | – |
| COc1ccc(-n2cnc3c(sc4ncnc(Nc5ccccn5)c43)c2=O)cc1 [190K] | – | 150 to 1000 | – |
| CN(C)c1ccnc2c1c1ncn(-c3ccc(Cl)cc3)c(=O)c1n2C [134F] | 150 to 1000 | – | – |
| CCNc1ncnc2sc3c(=O)n(-c4ccc(SC)cc4)cnc3c12 [95AD] | < 50 | – | – |
| Cc1cccc(-n2cnc3c(sc4nccc(N(C)C)c43)c2=O)n1 [7CX] | 50 to 150 | – | – |
| CC(=O)NN(C)c1ccnc2sc3c(=O)n(-c4ccc(C)cc4)cnc3c12 [73I] | – | 150 to 1000 | – |
| CN(C)c1cccc2sc3c(=O)n(-c4cccc(F)c4F)cnc3c12 [103O] | – | > 1000 | – |

Second part, led by results:

| IC50 [1] [nM] | IC50 [2] [nM] | SMILES | further results |
| --- | --- | --- | --- |
| 50 to 150 | – | CN(C)c1ccnc2sc3c(=O)n(N4CCCC4)cnc3c12 [60I] | – |
| < 50 | – | CN(C)c1ccnc2sc3c(=O)n(-c4ccc5c(c4)CCO5)cnc3c12 [7CG] | – |
| – | < 50 | CNc1cc(O)nc2sc3c(=O)n(-c4ccc(C)cc4)cnc3c12 [172B] | – |
| 50 to 150 | – | CN(C)c1ccnc2sc3c(=O)n(C4CCOCC4)cnc3c12 [15E] | – |
| – | 150 to 1000 | Cc1ccc(-n2cnc3c(sc4nccc(N[C@@H](C)CO)c43)c2=O)cc1 [28DD] | – |
| < 50 | – | Cc1ccc(-n2cnc3c(sc4nc(C)cc(N(C)C)c43)c2=O)cc1 [7CK] | – |
| < 50 | – | CN(C)c1ccnc2sc3c(=O)n(N4CC5CCCC5C4)cnc3c12 (stereo not shown) [60E] | – |
| – | < 50 | CCc1ncnc2sc3c(=O)n(-c4ccc(OC)cc4)cnc3c12 [compound 201] | – |
| < 50 | – | Cc1cc(N(C)C)c2c(n1)sc1c(=O)n(-c3ccc(Br)cc3)cnc12 [7CY] | – |
| < 50 | – | CCNc1ccnc2sc3c(=O)n(-c4ccc(C)cc4)c(C)nc3c12 [113H] | – |
| > 1000 | – | O=c1c2sc3nccc(N4CCCCC4)c3c2ncn1C1CCCCC1 [28L] | – |
| – | 150 to 1000 | COCCCNc1ccnc2sc3c(=O)n(-c4ccc(OS(=O)(=O)C(F)(F)F)cc4)cnc3c12 [28HX] | – |
| – | < 50 | CCNc1ncnc2sc3c(=O)n(-c4ccc5ncsc5c4)cnc3c12 [95BK] | – |
| – | 150 to 1000 | COc1cc(-n2cnc3c(sc4nccc(N(C)C)c43)c2=O)ccc1F [28FW] | – |
| < 50 | – | Cc1nc2c(sc3nccc(N(C)C)c32)c(=O)n1-c1ccccc1 [113B] | – |
| – | < 50 | O=c1c2sc3nccc(NC4CC4)c3c2ncn1-c1cccc(F)c1 [28CN] | – |
| 150 to 1000 | – | Cc1nc2c(sc3nccc(NC4CC4)c32)c(=O)n1-c1ccccc1 [113C] | – |
| < 50 | – | COc1ccc(-n2cnc3c(sc4nccc(N(C)C)c43)c2=O)cn1 [7BW] | – |

| IC50 [1] [nM] | IC50 [2] [nM] | SMILES | further results |
| --- | --- | --- | --- |
| – | > 1000 | COc1ccc(-n2cnc3c(sc4nccc(OC)c43)c2=O)c(C)c1 [28BL] | – |
| 50 to 150 | – | CC(c1ccccc1)n1cnc2c(sc3nccc(N(C)C)c32)c1=O (stereo not shown) [7AH] | – |
| – | < 50 | CSCCNc1ncnc2sc3c(=O)n(-c4ccc(C)cc4)cnc3c12 [95FR] | – |
| – | 50 to 150 | CCNc1ncnc2sc3c(=O)n(-c4ccc(OC)cc4F)cnc3c12 [95BE] | – |
| > 1000 | – | O=c1c2sc3nccc(NC4CCCCC4)c3c2ncn1-c1ccc(OC(F)(F)F)cc1 [28F] | – |
| < 50 | – | CCN(C)c1ncnc2sc3c(=O)n(-c4ccc(C)nc4)cnc3c12 [95U] | – |
| > 1000 | – | CN(C)c1ccnc2sc3c(=O)n(-c4nncs4)cnc3c12 [15X] | – |
| – | < 50 | CNc1ccnc2sc3c(=O)n(-c4ccc(OC)cc4C)cnc3c12 [28BN] | – |
| < 50 | – | CCNc1ccnc2sc3c(=O)n(-c4ccc(S)c(NC=O)c4)cnc3c12 [131G] | – |
| < 50 | – | CNc1ccnc2sc3c(=O)n(-c4ccc(C)cc4)cnc3c12 [28AI] | IC50 [3]: 1.27 nM |
| – | 150 to 1000 | COc1cc(-n2cnc3c(sc4nccc(NC5CC5)c43)c2=O)ccc1F [131N] | – |
| – | < 50 | COCCCNc1ccnc2sc3c(=O)n(-c4ccc(Cl)cc4)cnc3c12 [28GN] | – |
| – | < 50 | O=c1c2sc3nccc(NC4CC4)c3c2ncn1-c1ccc2c(c1)OCCO2 [28CK] | – |
| – | < 50 | CCN(C)c1ccnc2sc3c(=O)n(-c4ccc5occc5c4)cnc3c12 [28BU] | – |
| < 50 | – | CCN(C)c1ncnc2sc3c(=O)n(-c4ccc(C(F)(F)F)cc4)cnc3c12 [95Y] | – |
| – | > 1000 | Cc1ccc(-n2cnc3c(sc4nc(N5CCCC5)nc(N)c43)c2=O)cc1 [71C] | – |
| < 50 | – | CCNc1ncnc2sc3c(=O)n(-c4ccc(OC(F)F)cc4)cnc3c12 [95W] | – |
| – | 150 to 1000 | CC(=O)NN(C)c1ccnc2sc3c(=O)n(-c4ccc(Cl)cc4)cnc3c12 [73H] | – |
